Measured values from the Kinase Knowledgebase extract (Sharma et al. 2016).

target: PIK3CG (human) (UniProt P48736); assay: Inhibition of PIK3CG Kinase Activity
Sequence (P48736 whole entry, looked up): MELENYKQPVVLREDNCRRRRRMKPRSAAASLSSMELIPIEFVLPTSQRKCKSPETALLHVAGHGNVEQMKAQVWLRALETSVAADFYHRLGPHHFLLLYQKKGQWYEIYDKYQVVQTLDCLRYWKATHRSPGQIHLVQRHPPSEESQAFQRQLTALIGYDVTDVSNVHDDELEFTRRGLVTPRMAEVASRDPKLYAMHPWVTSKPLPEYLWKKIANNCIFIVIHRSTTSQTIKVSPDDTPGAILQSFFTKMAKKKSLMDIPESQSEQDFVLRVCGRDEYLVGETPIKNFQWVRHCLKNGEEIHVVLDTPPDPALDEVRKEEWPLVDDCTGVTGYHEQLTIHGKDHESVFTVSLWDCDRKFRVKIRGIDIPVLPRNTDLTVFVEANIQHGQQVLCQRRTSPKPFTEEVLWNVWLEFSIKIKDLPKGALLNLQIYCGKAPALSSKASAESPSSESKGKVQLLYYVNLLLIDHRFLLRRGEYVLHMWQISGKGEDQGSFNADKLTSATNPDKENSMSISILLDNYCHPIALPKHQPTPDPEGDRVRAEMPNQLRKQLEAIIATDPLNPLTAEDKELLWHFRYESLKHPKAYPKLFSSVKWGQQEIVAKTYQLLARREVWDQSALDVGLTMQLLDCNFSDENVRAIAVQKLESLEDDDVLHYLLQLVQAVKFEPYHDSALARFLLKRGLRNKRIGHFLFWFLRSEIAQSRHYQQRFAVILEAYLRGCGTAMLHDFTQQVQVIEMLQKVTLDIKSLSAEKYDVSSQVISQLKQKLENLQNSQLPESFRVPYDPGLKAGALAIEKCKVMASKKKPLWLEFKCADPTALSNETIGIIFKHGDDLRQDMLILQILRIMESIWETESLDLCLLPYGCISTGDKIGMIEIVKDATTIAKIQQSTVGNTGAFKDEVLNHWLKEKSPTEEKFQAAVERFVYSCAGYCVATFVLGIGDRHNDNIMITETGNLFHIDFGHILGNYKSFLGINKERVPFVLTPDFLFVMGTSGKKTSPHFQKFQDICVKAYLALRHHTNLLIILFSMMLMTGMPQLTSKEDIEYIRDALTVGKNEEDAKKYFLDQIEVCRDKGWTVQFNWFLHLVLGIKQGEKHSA

Compound	Ki
COc1cc(-c2cc(C)c3c(n2)CN(c2ccnc(F)c2)C3=O)cnc1OC	< 100 nM
COc1cc(-c2ccc3c(n2)C(C)N(c2csc(SC)n2)C3=O)cnc1OC (stereo not drawn)	< 100 nM
Cc1cc(-c2cncc(C(=O)N(C)C)c2)nc2c1C(=O)N(c1cnn(CC(F)(F)F)c1)C2(C)C	100 to 490 nM
COc1cncc(-c2cc(C)c3c(n2)[C@@H](C)N(c2cnn(CC(F)(F)F)c2)C3=O)c1	< 100 nM
COc1cc(-c2ccc3c(n2)CN(c2ccc(OCC4OCCO4)nc2)C3=O)cnc1OC	< 100 nM
Cc1cc(-c2cncc(OC(F)F)c2)nc2c1C(=O)N(c1cnn(CC(F)(F)F)c1)C2(C)C	< 100 nM
COc1ccc(-c2cc(C)c3c(n2)CN(c2cnn(C(C)(C)C#N)c2)C3=O)cc1OC	< 100 nM
CCOc1ncc(-c2cc(C)c3c(n2)C2(CC2)N(c2cnn(CC(F)(F)F)c2)C3=O)cc1OC	< 100 nM
COCCCOc1cc(-c2cc(C)c3c(n2)CN(c2cnn(CC(F)(F)F)c2)C3=O)cnc1OC	< 100 nM
COc1ncc(-c2cc(C)c3c(n2)CN(c2cnn(C(C)(C)C#N)c2)C3=O)cc1OC(C)C	< 100 nM
Cc1cc(-c2cncc(OCC(F)(F)F)c2)nc2c1C(=O)N(c1cnn(CC(F)(F)F)c1)C2C (stereo not drawn)	< 100 nM
Cc1cc(-c2cncc(OC(F)F)c2)nc2c1C(=O)N(c1cnn(C[C@H](C)O)c1)C2	< 100 nM
COC(=O)CC1c2nc(-c3cnc(OC)c(OC)c3)ccc2C(=O)N1c1cnn(CC(F)(F)F)c1 (stereo not drawn)	< 100 nM
COc1cc(-c2ccc3c(n2)C(O)N(c2cnn(CC(F)(F)F)c2)C3=O)cnc1OC (stereo not drawn)	< 100 nM
CCOc1cncc(-c2cc(C)c3c(n2)CN(c2cnn(CC(F)F)c2)C3=O)c1	< 100 nM
COc1cc(-c2ccc3c(n2)CN(c2ccc(C)s2)C3=O)cnc1OC	< 100 nM
COc1cc(-c2ccc3c(c2)CN(c2cc(C)n(C)n2)C3=O)cnc1OC	100 to 490 nM
CCNC(=O)c1cc(-c2cc(C)c3c(n2)C2(COC2)N(c2cnn(CC(F)(F)F)c2)C3=O)cnc1C	< 100 nM
COc1cc(-c2ccc3c(n2)CN(c2cnn(Cc4cc(C)no4)c2)C3=O)cnc1OC	< 100 nM
CCOc1ncc(-c2cc(C)c3c(n2)CN(c2cnn(CC#N)c2)C3=O)cc1OC	< 100 nM
COc1ncc(-c2cc(C)c3c(n2)CN(c2cnn(C)c2)C3=O)cc1OC(F)F	< 100 nM
COc1cc(-c2cc(C)c3c(n2)C(OC2CCC2)N(c2cnn(CC(F)(F)F)c2)C3=O)cnc1OC (stereo not drawn)	< 100 nM
CCOc1cncc(-c2cc(C)c3c(n2)[C@@H](C)N(c2cnn(CC(F)(F)F)c2)C3=O)c1	< 100 nM
COc1cc(-c2ccc3c(n2)CN(c2cnn(Cc4cn(C)cn4)c2)C3=O)cnc1OC	< 100 nM

Compound	Ki
COc1ncc(-c2ccc3c(n2)CN(c2cnn(C(C)(C)C#N)c2)C3=O)cc1OC(F)F	< 100 nM
Cc1cc(-c2cncc(OC(F)F)c2)nc2c1C(=O)N(c1cnn(C)c1)C2	< 100 nM
COc1cncc(-c2cc(C)c3c(n2)C2(COC2)N(c2cnn(CC(F)(F)F)c2)C3=O)c1	< 100 nM
COc1cc(-c2ccc3c(n2)[C@H](OC)N(c2cnn(CC(F)(F)F)c2)C3=O)cnc1OC	< 100 nM
COc1cc(-c2cc(OC)c3c(n2)CN(c2cnn(CC#N)c2)C3=O)cnc1OC	< 100 nM
COc1cncc(-c2cc(C)c3c(n2)C2(CN(C(C)=O)C2)N(c2cnn(CC(F)(F)F)c2)C3=O)c1	< 100 nM
C=CCNC(=O)c1cncc(-c2cc(C)c3c(n2)C(C)(C)N(c2cnn(CC(F)(F)F)c2)C3=O)c1	< 100 nM
COc1cc(-c2ccc3c(c2)CN(c2cnn(CCC#N)c2)C3=O)cnc1OC	< 100 nM
COc1cncc(-c2cc(C)c3c(c2)CN(c2cnn(CC(F)(F)F)c2)C3=O)c1	< 100 nM
COc1ncc(-c2cc(C)c3c(n2)CN(c2cnn(CC(F)(F)F)c2)C3=O)cc1Cl	< 100 nM
Cc1cc(-c2cncc(NS(=O)(=O)c3ccc(F)cc3F)c2)nc2c1C(=O)N(c1cnn(CC(F)(F)F)c1)C2(C)C	< 100 nM
Cc1cc(-c2cncc(C(=O)N3CCOCC3)c2)nc2c1C(=O)N(c1cnn(CC(F)(F)F)c1)C2(C)C	100 to 490 nM
COc1cc(-c2ccc3c(n2)CN(c2cnn(CC(C)C)c2)C3=O)cnc1OC	< 100 nM
COc1cc(-c2cc(C)c3c(n2)C2(CCOCC2)N(c2cnn(C(C)(C)C#N)c2)C3=O)cnc1OC	< 100 nM
COc1cc(-c2ccc3c(n2)CN(c2ccc(N4CCC(CO)C4)nc2)C3=O)cnc1OC (stereo not drawn)	100 to 490 nM
COc1cc(OC)cc(-c2cc(C)c3c(n2)C(C)N(c2cnn(CC(F)(F)F)c2)C3=O)c1 (stereo not drawn)	< 100 nM
COc1cc(-c2cc(C)c3c(n2)C(O)(C2CC2)N(c2cnn(CC(F)(F)F)c2)C3=O)cnc1OC (stereo not drawn)	< 100 nM
COc1cncc(-c2cc(C)c3c(n2)[C@@H](C)N(c2ccn(CC(C)(C)O)n2)C3=O)c1	< 100 nM
COc1cc(-c2ccc3c(n2)CN(c2cnn(Cc4cscn4)c2)C3=O)cnc1OC	< 100 nM
CCn1cc(N2Cc3nc(-c4cnc(OC)c(OC)c4)ccc3C2=O)nn1	< 100 nM
Cc1cc(-c2cncc(OCC(F)(F)F)c2)nc2c1C(=O)N(c1cnn(CC(F)(F)F)c1)[C@@H]2C	< 100 nM
CC1c2nc(-c3cccc(OC(F)(F)F)c3)ccc2C(=O)N1c1cnn(CC(F)(F)F)c1 (stereo not drawn)	< 100 nM
CCn1ccc(N2C(=O)c3ccc(-c4cnc(OC)c(OC)c4)nc3[C@@H]2C)n1	< 100 nM
COc1cc(-c2cc(C)c3c(n2)CN(c2cncc(F)c2)C3=O)cnc1OC	< 100 nM

Compound	Ki
COc1cc(-c2cc(C)c3c(n2)CN(c2ccn(C4CC4)n2)C3=O)cnc1OC	< 100 nM
CCOc1cncc(-c2cc(C)c3c(n2)[C@]2(CCOC2)N(c2cnn(CC(F)(F)F)c2)C3=O)c1	< 100 nM
COc1cncc(-c2cc(C)c3c(n2)C2(CCOCC2)N(c2cnn(CC(F)(F)F)c2)C3=O)c1	< 100 nM
Cc1cc(-c2cncc(OC(F)F)c2)nc2c1C(=O)N(c1ccnc(F)c1)C2C (stereo not drawn)	< 100 nM
CCNC(=O)c1cncc(-c2cc(C)c3c(n2)C(C)N(c2cnn(CC(F)(F)F)c2)C3=O)c1 (stereo not drawn)	< 100 nM
COc1cc(-c2ccc3c(n2)C(C)N(c2cccc(C(O)C(F)(F)F)n2)C3=O)cnc1OC (stereo not drawn)	< 100 nM
COc1cc(-c2cc(Cl)c3c(n2)CN(c2cnn(CC(F)(F)F)c2)C3=O)cnc1OC	< 100 nM
COC1c2nc(-c3cncc(OCC(F)F)c3)cc(C)c2C(=O)N1c1cnn(CC(F)(F)F)c1 (stereo not drawn)	< 100 nM
Cc1cc(-c2cncc(OC(F)F)c2)nc2c1C(=O)N(c1cn[nH]c1)C2C (stereo not drawn)	< 100 nM
COc1cc(-c2ccc3c(n2)C(C)N(c2ccn(CC(C)(C)F)n2)C3=O)cnc1OC (stereo not drawn)	< 100 nM
Cc1cc(-c2cncc(OC(F)F)c2)cc2c1C(=O)N(c1cnn(CC(F)(F)F)c1)C2C (stereo not drawn)	< 100 nM
COc1cc(-c2ccc3c(c2)CN(c2cnn(CC4CCCO4)c2)C3=O)cnc1OC (stereo not drawn)	100 to 490 nM
COc1cc(-c2cc(C)c3c(n2)[C@]2(CCCO2)N(c2cnn(CC(F)(F)F)c2)C3=O)cnc1OC	< 100 nM
COc1cc(-c2cc(C)c3c(n2)C(OC(C)C)N(c2cnn(CC(F)(F)F)c2)C3=O)cnc1OC (stereo not drawn)	< 100 nM
CCn1ccc(N2C(=O)c3ccc(-c4cnc(OC)c(OC)c4)nc3[C@H]2C)n1	< 100 nM
COCCOCCOc1ncc(-c2cc(C)c3c(n2)CN(c2cnn(CC(F)(F)F)c2)C3=O)cc1OC	< 100 nM
CCOc1ncc(-c2cc(C)c3c(n2)CN(c2cnn(C(C)(C)C#N)c2)C3=O)cc1OC	< 100 nM
Cc1cc(-c2cncc(C(=O)NC3COC3)c2)nc2c1C(=O)N(c1cnn(CC(F)(F)F)c1)C2(C)C	< 100 nM
CCOc1cncc(-c2cc(C)c3c(n2)[C@H](C)N(c2cnn(CC(F)(F)F)c2)C3=O)c1	< 100 nM
CCn1cc(N2C(=O)c3c(C)cc(-c4cncc(OC(F)F)c4)nc3[C@H]2C)cn1	< 100 nM
COc1ncc(-c2ccc3c(n2)CN(c2cnn(CC(F)(F)F)c2)C3=O)cc1CO	100 to 490 nM
COc1cc(-c2ccc3c(n2)C(C)N(c2cnn(C=C(F)F)c2)C3=O)cnc1OC (stereo not drawn)	< 100 nM
COc1cc(-c2ccc3c(n2)CN(c2cnn(Cc4cccnc4C)c2)C3=O)cnc1OC	< 100 nM
COc1ncc(-c2cc(C)c3c(n2)C(C)(C)N(c2cnn(CC(F)(F)F)c2)C3=O)cc1C(=O)NCC#N	< 100 nM

Compound	Ki
Cc1cc(-c2cncc(C(=O)NCC3CC3)c2)nc2c1C(=O)N(c1cnn(CC(F)(F)F)c1)C2(C)C	< 100 nM
COc1ncc(-c2cc(C)c3c(n2)CN(c2cnn(C(C)(C)C#N)c2)C3=O)cc1OCC(F)(F)F	< 100 nM
COc1cncc(-c2cc(C)c3c(n2)C(C)N(c2ccn(CC(C)(C)F)n2)C3=O)c1 (stereo not drawn)	< 100 nM
Cc1cc(-c2cncc(OCC(F)(F)F)c2)nc2c1C(=O)N(c1cnn(CC#N)c1)C2(C)C	< 100 nM
COc1cc(-c2ccc3c(n2)CN(c2ccc(N(C)CC4OCCO4)nc2)C3=O)cnc1OC	100 to 490 nM
COc1cc(-c2ccc3c(n2)C2(CCOCC2)N(c2cnn(CC(F)(F)F)c2)C3=O)cnc1OC	< 100 nM
COc1cc(-c2ccc3c(n2)[C@@H](C)N(c2cc[nH]n2)C3=O)cnc1OC	< 100 nM
COc1cc(-c2ccc3c(n2)CN(c2ccc(N(C)CC4CCCO4)nc2)C3=O)cnc1OC (stereo not drawn)	100 to 490 nM
COc1cc(-c2ccc3c(c2)CN(c2cnn(CC(C)C)c2)C3=O)cnc1OC	100 to 490 nM
COc1ncc(-c2cc(C)c3c(n2)C(C)(C)N(c2cnn(CC(F)(F)F)c2)C3=O)cc1C(=O)NC[C@@H](O)CO	< 100 nM
Cc1cncc(-c2cc(C)c3c(n2)CN(c2cnn(CC#N)c2)C3=O)c1	< 100 nM
CCOc1ncc(-c2cc(C)c3c(c2)CN(c2cnn(CC(F)(F)F)c2)C3=O)cc1OC	< 100 nM
CCn1cc(N2C(=O)c3c(C)cc(-c4cncc(OC)c4)nc3C2(C)C)cn1	< 100 nM
CCn1ccc(N2C(=O)c3c(C)cc(-c4cncc(OCC(F)F)c4)nc3C2C)n1 (stereo not drawn)	< 100 nM
COc1cc(-c2ccc3c(c2)CN(c2cc(C)ns2)C3=O)cnc1OC	100 to 490 nM
Cc1cc(-c2cncc(OCC(F)F)c2)nc2c1C(=O)N(c1cc[nH]n1)C2C (stereo not drawn)	100 to 490 nM
Cc1cc(-c2cnc(C)c(C(=O)N(C)C)c2)nc2c1C(=O)N(c1cnn(CC(F)(F)F)c1)C2(C)C	< 100 nM
CCn1ccc(N2Cc3nc(-c4cnc(OC)c(OCC5CC5)c4)cc(C)c3C2=O)n1	< 100 nM
COc1cc(-c2ccc3c(n2)C(N2CC[C@@H](F)C2)N(c2cnn(CC(F)(F)F)c2)C3=O)cnc1OC (stereo partly drawn)	< 100 nM
COc1cncc(-c2cc(C)c3c(n2)C(C)N(c2ccn([C@@H]4CCOC4)n2)C3=O)c1 (stereo partly drawn)	< 100 nM
Cc1cc(-c2cnc(C)c(O)c2)nc2c1C(=O)N(c1cnn(CC(F)(F)F)c1)C2(C)C	< 100 nM
